In US11731946B2, “Broad spectrum antivirulence, anti-persistence compounds” (priority 2017, dated 2023):

Tested on: MvfR regulon
Assay: pqsA gene expression (pqsA-GFP reporter)
Assay type: cell-based, P. aeruginosa
Conditions: Pseudomonas aeruginosa

Structure (SMILES): N#Cc1ccc(NC(=O)CC(=O)Nc2ccc(Br)cc2)cc1 [Compound 54]
- IC50 (read-out: IC50 pqsA (μM)): 1.28 µM
- activity at 10 µM (read-out: pqsA @10 uM (%), compound at 10 uM): 8.8%
- activity at 50 µM (read-out: pqsA @50 uM (%), compound at 50 uM): 7.93%
